Two compounds from patent US10351553B2, “Potassium channel modulators” (Cadent Therapeutics, Inc., priority 2017, dated 2019) can be followed below.

Some results are limits rather than exact numbers.

In data set [1] the target is T1, CYP3A4 (Homo sapiens, UniProt P08684).
T1 construct: Matrix: Human Liver Microsome (Invitrogen, life technologies); tissue Invitrogen, life technologies; host or cells: human liver microsomes
In words: CYP inhibition in human liver microsome, CYP3A4 (Midazolam). The data set is classed as in vitro ADME. Here is the method: Compounds described herein were tested for CYP inhibition across 5 isoforms (3A4, 2D6, 2C9, 2C19 & 1A2). In this assay, CYP isoform specific substrates are incubated with human liver microsome (HLM) in the presence of test compounds, and metabolite formation is determined. Percentage inhibition of metabolite formation at different concentrations of test compound is calculated and IC50 is determined. Conditions used in the assay are summarized below. Results are shown in Table 2. • Test drug (Inhibitor) Concentration: 8 different concentrations (100 μM to 0.005 μM) • Matrix: Human Liver Microsome (Invitrogen, life technologies) • Specific probe substrates will be used for the isoforms as given below: • CYP3A4: Midazolam • CYP2D6: Bufuralol • CYP2C9: Diclofenac • CYP2C19: Mephynitoin • CYP1A2: Phenacetin • Cofactors: NADPH (1 mM final in assay) • Sample Analysis: LC-MS/MS (metabolites) • Specific reference inhibitors included in all assays (Ketoconazole/Quinidine/Sulphaphenazole/Ticlopidine/Furafylline) • Buffer: Potassium Phosphate Buffer (100 mM) pH 7.4 • DMSO level in assay: 0.1% • Data analysis: % Inhibition over control

The nature of data set [2]: Metabolic stability in liver microsomes, dog. The format is in vitro ADME. The following applies: % remaining at 1 hour; 1 μM. Here is the method: Metabolic stability profiling of the compounds was performed in liver microsomes. In this assay, test compound is incubated with liver microsomes in the presence of NADPH for 2 time points at 37° C. At the end of incubation, reaction is quenched with acetonitrile containing internal standard and the parent compound remaining is determined by LC-MS/MS. Conditions used in the assay are summarized below. […], 37° C. • Test concentration: 1 μM in 0.02% DMSO at pH 7.4 (n=2) • NADPH concentration in assay: 1 mM • Liver microsome protein concentration in assay: 0.5 mg/ml • Analysis: LC-MS/MS • Data reported: % Parent Compound Remaining (% PCR) • Reference compounds for high and low clearance are included • Species tested: mouse, rat, dog, monkey, and human

The nature of data set [3]: Brain free fraction by equilibrium dialysis in rat brain tissue homogenate. The format is in vitro ADME. The following applies: 10% rat brain tissue homogenate, Tables 2 and 3. As to the method: The extent to which compounds modulate SK2 channels in vivo is expressed as % SK2 SC100, which is the ratio of the concentration of the drug free in the brain to the measured potency of the compound on the SK2 channel. It is calculated as follows: CFB=CMB×BFF, where CMB is the concentration of compound measured by liquid chromatography mass spectrometry from brains harvested immediately following tremor recording (Table 1, “Measured Brain Concentration”). CFB is the amount of free compound not complexed with protein and therefore free to interact with the SK2 channel (Table 1, “Calculated Free Brain Concentration”). BFF is average free fraction of compound as measured by equilibrium dialysis in separate experiments (1 uM test concentration incubated in 10% rat brain tissue homogenate for 5 hours at 37° C.) (Table 1, “Brain Free Fraction”). Free drug in brain available to interact with SK2 channels (CFB) is arrived at by multiplying the measured total brain level (CMB) by the average free fraction (BFF).

In data set [4] the target is T2, hERG (Homo sapiens, UniProt Q12809).
T2 construct: host or cells: HEK-293
T2 sequence (Q12809 whole entry): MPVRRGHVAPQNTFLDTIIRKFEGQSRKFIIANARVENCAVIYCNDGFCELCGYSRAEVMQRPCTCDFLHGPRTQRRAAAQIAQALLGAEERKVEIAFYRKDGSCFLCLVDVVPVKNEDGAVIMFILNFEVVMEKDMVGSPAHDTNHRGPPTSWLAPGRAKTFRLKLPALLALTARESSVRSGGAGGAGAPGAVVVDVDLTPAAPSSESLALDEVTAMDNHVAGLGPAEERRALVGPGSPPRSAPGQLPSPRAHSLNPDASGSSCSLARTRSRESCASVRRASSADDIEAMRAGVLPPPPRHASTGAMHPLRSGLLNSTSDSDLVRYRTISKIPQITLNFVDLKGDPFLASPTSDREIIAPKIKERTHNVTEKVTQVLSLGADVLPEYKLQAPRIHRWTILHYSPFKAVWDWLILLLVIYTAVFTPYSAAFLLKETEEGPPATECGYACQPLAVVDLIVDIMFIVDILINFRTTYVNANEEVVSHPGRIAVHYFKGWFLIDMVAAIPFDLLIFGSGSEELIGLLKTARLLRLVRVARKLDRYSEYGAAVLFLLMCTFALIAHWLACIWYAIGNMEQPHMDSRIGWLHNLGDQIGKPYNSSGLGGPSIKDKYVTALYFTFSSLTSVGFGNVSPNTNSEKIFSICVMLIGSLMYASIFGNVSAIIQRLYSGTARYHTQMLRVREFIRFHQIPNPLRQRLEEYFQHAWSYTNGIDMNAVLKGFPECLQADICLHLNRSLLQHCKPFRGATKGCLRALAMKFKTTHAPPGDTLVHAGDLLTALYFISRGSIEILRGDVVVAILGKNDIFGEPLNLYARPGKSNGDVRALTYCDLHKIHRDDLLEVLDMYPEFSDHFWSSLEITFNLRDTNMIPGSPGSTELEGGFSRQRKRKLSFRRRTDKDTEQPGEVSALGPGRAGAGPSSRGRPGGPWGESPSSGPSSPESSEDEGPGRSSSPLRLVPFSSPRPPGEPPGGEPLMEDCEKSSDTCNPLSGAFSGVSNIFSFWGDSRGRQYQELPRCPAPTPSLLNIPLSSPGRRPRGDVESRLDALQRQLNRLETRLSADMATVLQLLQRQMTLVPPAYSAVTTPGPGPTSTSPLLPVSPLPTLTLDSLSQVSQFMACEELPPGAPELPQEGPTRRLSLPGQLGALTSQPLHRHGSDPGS
Briefly: Cardiac potassium channel hERG assay, whole-cell patch clamp in HEK-293 cells. The format is cell-based. The following applies: HEK-293 cells stably transfected with hERG; read-out: hERG inhibition (IC50). As to the method:
Compounds were tested in a cardiac potassium channel hERG assay. hERG is responsible for a rapid delayed rectifier current (IKr) in human ventricles. Inhibition of IKr is the most common cause of cardiac action potential prolongation by non-cardiac drugs. See e.g., Brown, A. M. and Rampe, D. (2000). Drug-induced long QT syndrome: is HERG the root of all evil? Pharmaceutical News 7, 15-20.
HEK-293 cells were stably transfected with hERG cDNA. Stable transfectants were selected by coexpression with the G418-resistance gene incorporated into the expression plasmid. Selection pressure was maintained by including G418 in the culture medium. Cells were cultured in Dulbecco's Modified Eagle Medium/Nutrient Mixture F-12 (D-MEM/F-12) supplemented with 10% fetal bovine serum, 100 U/mL penicillin G sodium, 100 μg/mL streptomycin sulfate and 500 μg/mL G418. Cell culture records are kept on file at Charles River Laboratories. […]
Onset and steady state inhibition of hERG current was measured using a pulse pattern with fixed amplitudes (conditioning prepulse: +20 mV for 2 s; test pulse: −50 mV for 2 s) repeated at 10 s intervals, from a holding potential of −80 mV. Peak tail current was measured during the 2 s step to −50 mV.
One test article concentration was applied to each cell (n=3). Peak current was measured during the test ramp. […] Peak current was measured until a new steady state was achieved.

Data set [5] relates to harmaline-induced tremor. Briefly: Harmaline-induced whole body tremor, force-plate accelerometer (Tremor Monitor). The data set is classed as in vivo. As to the method:
Whole body tremor was measured by a San Diego Instruments Tremor Monitor (San Diego, Calif., USA). […] Tremor was measured for 30 minutes following harmaline administration, and data were analyzed by fast Fourier transform and reported as a frequency power spectrum. Harmaline induced a significant increase in the power spectrum in a band of frequencies between 10 and 14 Hz. […] Data were further analyzed by calculating the percent Motion Power (% MP), defined as the power in the 9-13 Hz band divided by the total power across the spectrum (0-30 Hz) multiplied by 100.

In data set [6] the test system is Purkinje neurons. In words: Purkinje cell firing irregularity in ex vivo cerebellar slices from SCA2 58Q transgenic mice. The format is cell-based, mouse. The following applies: bath application of 1 or 3 μM; slices from eleven-month old SCA2 58Q mice; P<0.05; FIG. 3. From the text: The difference in ISI CV between wild-type (N=8) and SCA2 58Q (N=11) mice is illustrated in FIG. 3 (P<0.005).

T1 sequence (P08684 whole entry): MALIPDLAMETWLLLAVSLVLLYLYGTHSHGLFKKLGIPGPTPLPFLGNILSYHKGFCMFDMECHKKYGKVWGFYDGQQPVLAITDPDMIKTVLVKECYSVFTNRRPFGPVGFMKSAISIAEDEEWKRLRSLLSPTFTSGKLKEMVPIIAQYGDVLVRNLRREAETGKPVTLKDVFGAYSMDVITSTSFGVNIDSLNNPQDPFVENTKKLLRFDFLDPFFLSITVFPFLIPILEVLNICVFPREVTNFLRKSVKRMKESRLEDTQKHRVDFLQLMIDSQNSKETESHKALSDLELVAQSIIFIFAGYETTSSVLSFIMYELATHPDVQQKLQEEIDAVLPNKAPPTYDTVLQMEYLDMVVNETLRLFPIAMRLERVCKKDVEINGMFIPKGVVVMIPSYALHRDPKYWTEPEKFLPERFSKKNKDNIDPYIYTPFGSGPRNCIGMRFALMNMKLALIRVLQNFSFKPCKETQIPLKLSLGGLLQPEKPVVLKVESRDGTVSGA

With `Cc1cc(NC2CCCCC2)nc(-n2nc(C)cc2C)n1` [Comparator A, reference compound], the IC50 in data set [1] and in data set [4] was above 10 µM in each case. Moreover, the “Liver microsome stability, Dog” value in data set [2] was 2%. The compound further had a fraction unbound at 5 h, 1 uM in data set [3] of 0.012.

For `Cc1ccn(-c2nc(NC3CCC(F)(F)CC3)cc(N3CCOCC3)n2)n1` [Compound 1, N-(4,4-difluorocyclohexyl)-2-(3-methyl-1H-pyrazol-1-yl)-6-morpholinopyrimidin-4-amine], the “Effect on percent Motion Power (% MP)” value in data set [5] (3 mg/kg P<0.01, 10 and 30 mg/kg P<0.05, orally, FIG. 2) is listed as “significantly reduced harmaline-induced tremor”. Further, the “Effect on harmaline-induced power spectrum, 10 to 14 Hz band” value in data set [5] (3, 10, and 30 mg/kg orally 30 minutes prior to 5 mg/kg harmaline i.p.) is “significantly reduced tremor”. The “Effect on coefficient of variation of the interspike interval (ISI CV)” value in data set [6] is given as “partially reversed the increase in ISI CV”. In addition, the IC50 in data set [1] and in data set [4] was above 10 µM in each case. In data set [2], the “Liver microsome stability, Dog” value is on record as 54%. The compound also showed a fraction unbound at 5 h, 1 uM in data set [3] of 0.061.
